Measurements taken from US9018206B2, “Carboxamide compounds and their use as calpain inhibitors” (AbbVie Deutschland GmbH & Co. KG, priority 2009, dated 2015).

Tests used:
Format in all cases: biochemical
[1] = target: T1, cathepsin B isolated from human liver (Homo sapiens, UniProt P07858); test: Cathepsin B enzyme inhibition in vitro (kinetic fluorescence assay); conditions: Ki(cathepsin B)/Ki(calpain) ratio
T1 construct: cathepsin B—isolated from human liver; purchased Calbiochem 219362; host or cells: human liver (tissue-derived)
Protocol: (§1) Testing for blockade of the corresponding enzymic activities was carried out by means of kinetic fluorescence assays (excitation 390 nm, emission 460 nm).
(§2) Apparent Ki values were calculated from the experimentally determined IC50 values by the Cheng-Prussoff relation assuming a reversible competitive enzyme inhibition. The Km values of the substrates used under the assay conditions indicated above were: 90 μM (Z-Phe-Arg-AMC, cathepsin B), 10 μM (Z-Gly-Pro-Arg-AMC, cathepsin K), 2 μM (Z-Phe-Arg-AMC, cathepsin L), and 30 μM (Z-Val-Val-Arg-AMC, cathepsin S).
(§3) The indicated Ki values are averages of the inhibition constants calculated on the basis of 2 to 4 independent dose-effect plots.
(§4) • 20 nM calpain-I—isolated from human erythrocytes (Calbiochem #208713), 100 μM Suc-Leu-Tyr-AMC (Bachem #I-1355) as substrate in buffer with 62 mM imidazole, 0.3 mM CaCl2, 0.10% CHAPS, 0.05% BSA, 1 mM DTT at pH 7.3 and room temperature. 1. Cathepsin B: • 0.25 nM cathepsin B—isolated from human liver (Calbiochem #219362), 100 μM Z-Phe-Arg-AMC (Bachem #I-1160) as substrate 50 mM MES, 2 mM EDTA, 0.05% Brij 35, 2.5 mM L-cysteine, pH 6.0, room temperature. 3. Cathepsin K: • 3 nM cathepsin K activated from recombinant human procathepsin K from E. coli (Calbiochem #342001), 10 μM Z-Gly-Pro-Arg-AMC (Biomol #P-142) as substrate in 50 mM MES, 2 mM EDTA, 0.05% Brij 35, 2.5 mM L-cysteine, pH 6.0, room temperature. 4. Cathepsin L: • 1 nM cathepsin L—isolated from human liver (Calbiochem #219402), 2 μM Z-Phe-Arg-AMC (Bachem #I-1160) as substrate in 50 mM MES, 2 mM EDTA, 0.05% Brij 35, 2.5 mM L-cysteine, pH 6.0, room temperature. 5. Cathepsin S: • 0.5 nM recombinant human cathepsin S from E. coli (Calbiochem #219343), 20 μM Z-Val-Val-Arg-AMC (Bachem #I-1540) as substrate in 50 mM MES, 2 mM EDTA, 0.05% Brij 35, 2.5 mM L-cysteine, pH 6.0, room temperature.

[2] = target: T2, calpain-I isolated from human erythrocytes (Homo sapiens, UniProt P07384); test: Calpain I enzyme inhibition in vitro (kinetic fluorescence assay); conditions: apparent Ki from IC50 (Cheng-Prussoff); 20 nM calpain-I, 100 μM Suc-Leu-Tyr-AMC, pH 7.3, room temperature
T2 construct: calpain-I—isolated from human erythrocytes; purchased Calbiochem 208713; host or cells: human erythrocytes (tissue-derived)
T2 sequence (P07384 1-714): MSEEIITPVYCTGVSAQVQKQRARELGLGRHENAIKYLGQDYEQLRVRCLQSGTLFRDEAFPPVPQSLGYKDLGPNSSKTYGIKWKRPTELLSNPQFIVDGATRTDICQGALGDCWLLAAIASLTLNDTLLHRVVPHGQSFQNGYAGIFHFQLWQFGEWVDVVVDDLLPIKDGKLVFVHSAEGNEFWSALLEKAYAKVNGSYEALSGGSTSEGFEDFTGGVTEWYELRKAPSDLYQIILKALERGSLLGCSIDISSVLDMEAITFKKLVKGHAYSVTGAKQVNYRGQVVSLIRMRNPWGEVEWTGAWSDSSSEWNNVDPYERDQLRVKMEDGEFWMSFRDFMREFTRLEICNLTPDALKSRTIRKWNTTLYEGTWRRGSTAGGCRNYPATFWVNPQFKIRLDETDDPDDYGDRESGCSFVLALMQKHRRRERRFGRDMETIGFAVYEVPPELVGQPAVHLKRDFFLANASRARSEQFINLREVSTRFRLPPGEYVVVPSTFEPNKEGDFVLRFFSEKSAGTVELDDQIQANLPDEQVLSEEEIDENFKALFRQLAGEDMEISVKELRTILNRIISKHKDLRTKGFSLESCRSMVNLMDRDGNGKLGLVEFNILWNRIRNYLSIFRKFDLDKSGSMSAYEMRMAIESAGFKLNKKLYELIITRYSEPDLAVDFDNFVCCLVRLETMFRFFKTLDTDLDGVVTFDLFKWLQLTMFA
T2 sequence (P04632 1-268 partner): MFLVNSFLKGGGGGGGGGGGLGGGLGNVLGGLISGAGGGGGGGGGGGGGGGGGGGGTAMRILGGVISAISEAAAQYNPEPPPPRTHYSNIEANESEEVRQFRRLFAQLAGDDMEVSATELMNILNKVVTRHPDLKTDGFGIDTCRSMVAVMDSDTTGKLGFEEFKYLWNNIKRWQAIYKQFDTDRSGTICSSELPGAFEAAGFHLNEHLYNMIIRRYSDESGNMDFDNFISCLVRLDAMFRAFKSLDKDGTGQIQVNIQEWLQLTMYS
Protocol: as §1, §2, §3, §4

[3] = target: T3, recombinant human cathepsin S (Homo sapiens, UniProt P25774); test: Cathepsin S enzyme inhibition in vitro (kinetic fluorescence assay); conditions: Ki(cathepsin S)/Ki(calpain) ratio
T3 construct: purchased Calbiochem 219343; host or cells: E. coli
Protocol: as §1, §2, §3, §4

[4] = target: T4, cathepsin K activated from recombinant human procathepsin K (Homo sapiens, UniProt P43235); test: Cathepsin K enzyme inhibition in vitro (kinetic fluorescence assay); conditions: Ki(cathepsin K)/Ki(calpain) ratio
T4 construct: purchased Calbiochem 342001; host or cells: E. coli
T4 sequence (P43235 115-329): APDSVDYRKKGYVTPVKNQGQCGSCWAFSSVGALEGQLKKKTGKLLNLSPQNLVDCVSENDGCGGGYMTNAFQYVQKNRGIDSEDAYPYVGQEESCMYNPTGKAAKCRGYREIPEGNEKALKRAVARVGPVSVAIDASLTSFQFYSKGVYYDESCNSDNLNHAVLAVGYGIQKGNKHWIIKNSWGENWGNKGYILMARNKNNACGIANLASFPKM
Protocol: as §1, §2, §3, §4

T3 sequence (P25774 115-331): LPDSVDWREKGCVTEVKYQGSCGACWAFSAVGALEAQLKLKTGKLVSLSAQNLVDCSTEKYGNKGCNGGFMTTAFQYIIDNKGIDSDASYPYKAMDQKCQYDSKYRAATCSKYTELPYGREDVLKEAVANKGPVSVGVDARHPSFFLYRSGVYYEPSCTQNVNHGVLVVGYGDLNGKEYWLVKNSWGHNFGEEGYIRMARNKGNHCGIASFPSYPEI

## CN1C[C@H](C(=O)NC(Cc2ccccc2)C(=O)C(N)=O)N(Cc2ccccc2)C1=O (stereo partly drawn) [Example 18, (4R)—N-(4-Amino-3,4-dioxo-1-phenylbutan-2-yl)-3-benzyl-1-methyl-2-oxoimidazolidine-4-carboxamide]
[1]
  Sel cat. B: +++ (Ki(cathepsin B)/Ki(calpain) ratio of >30)
[2]
  Ki: 100 to 600 nM

## CCNC(=O)C(=O)C(Cc1ccccc1)NC(=O)[C@H]1CCC(=O)N1Cc1ccc(C(F)(F)F)cc1 (mixture of isomers) [Example 55, (2R)—N-(4-(ethylamino)-3,4-dioxo-1-phenylbutan-2-yl)-5-oxo-1-(4-(trifluoromethyl)benzyl)pyrrolidine-2-carboxamide]
[2]
  Ki: 100 to 600 nM

## NC(=O)C(=O)C(Cc1ccccc1)NC(=O)c1cccc(=O)n1Cc1ccccc1 (centres unmarked) [Example 4, N-(4-Amino-3,4-dioxo-1-phenylbutan-2-yl)-1-benzyl-6-oxo-1,6-dihydropyridine-2-carboxamide]
[1]
  Sel cat. B: ++ (10<Ki(cathepsin B)/Ki(calpain)≦30)
[3]
  Sel cat. S: + (10<Ki(cathepsin S)/Ki(calpain)≦30)
[2]
  Ki: 50 to 100 nM

## O=C(NCCCc1ccccn1)C(=O)C(Cc1ccccc1)NC(=O)[C@H]1CCC(=O)N1Cc1ccccc1 (mixture of isomers) [Example 32, (2R)-1-Benzyl-N-(3,4-dioxo-1-phenyl-4-(3-(pyridin-2-yl)propylamino)butan-2-yl)-5-oxopyrrolidine-2-carboxamide]
[1]
  Sel cat. B: ++ (10<Ki(cathepsin B)/Ki(calpain)≦30)
[3]
  Sel cat. S: ++ (30<Ki(cathepsin B)/Ki(calpain)≦100)
[4]
  Sel cat. K: + (5<Ki(cathepsin K)/Ki(calpain)≦10)
[2]
  Ki: 50 to 100 nM

## O=C(NC1CCCCC1)C(=O)C(Cc1ccccc1)NC(=O)[C@H]1CCC(=O)N1Cc1ccccc1 (mixture of isomers) [Example 56, (2R)-1-Benzyl-N-(4-(cyclohexylamino)-3,4-dioxo-1-phenylbutan-2-yl)-5-oxopyrrolidine-2-carboxamide]
[1]
  Sel cat. B: ++ (10<Ki(cathepsin B)/Ki(calpain)≦30)
[3]
  Sel cat. S: ++ (30<Ki(cathepsin B)/Ki(calpain)≦100)
[4]
  Sel cat. K: + (5<Ki(cathepsin K)/Ki(calpain)≦10)
[2]
  Ki: 50 to 100 nM

## O=C(C(=O)N1CCOCC1)C(Cc1ccccc1)NC(=O)[C@H]1CCC(=O)N1Cc1ccccc1 (mixture of isomers) [Example 54, (2R)-1-Benzyl-N-(4-morpholino-3,4-dioxo-1-phenylbutan-2-yl)-5-oxopyrrolidine-2-carboxamide]
[2]
  Ki: 100 to 600 nM

## O=C(NC1CC1)C(=O)C(Cc1ccccc1)NC(=O)[C@H]1CCC(=O)N1Cc1ccc(C(F)(F)F)cc1 (mixture of isomers) [Example 58, (2R)—N-(4-(Cyclopropylamino)-3,4-dioxo-1-phenylbutan-2-yl)-5-oxo-1-(4-(trifluoromethyl)benzyl)pyrrolidine-2-carboxamide]
[1]
  Sel cat. B: + (5<Ki(cathepsin B)/Ki(calpain)≦10)
[3]
  Sel cat. S: ++ (30<Ki(cathepsin B)/Ki(calpain)≦100)
[4]
  Sel cat. K: + (5<Ki(cathepsin K)/Ki(calpain)≦10)
[2]
  Ki: 100 to 600 nM

## O=C(NC[C@@H]1CCCO1)C(=O)C(Cc1ccccc1)NC(=O)[C@H]1CCC(=O)N1Cc1ccccc1 (stereo partly drawn) [Example 70, (2R)-1-Benzyl-N-(3,4-dioxo-1-phenyl-4-(((S)-tetrahydrofuran-2-yl)methylamino)-butan-2-yl)-5-oxopyrrolidine-2-carboxamide]
[2]
  Ki: 50 to 100 nM

## O=C(NCc1nc2ccccc2s1)C(=O)C(Cc1ccccc1)NC(=O)[C@H]1CCC(=O)N1Cc1ccccc1 (stereo partly drawn) [Example 53, (2R)—N-(4-(Benzo[d]thiazol-2-ylmethylamino)-3,4-dioxo-1-phenylbutan-2-yl)-1-benzyl-5-oxopyrrolidine-2-carboxamide]
[2]
  Ki: 50 to 100 nM

## O=C(NC[C@H]1CCCO1)C(=O)C(Cc1ccccc1)NC(=O)[C@H]1CCC(=O)N1Cc1ccccc1 (mixture of isomers) [Example 69, (2R)-1-Benzyl-N-(3,4-dioxo-1-phenyl-4-(((R)-tetrahydrofuran-2-yl)methylamino)-butan-2-yl)-5-oxopyrrolidine-2-carboxamide]
[2]
  Ki: 100 to 600 nM

## O=C(NCCc1ccccn1)C(=O)C(Cc1ccccc1)NC(=O)[C@H]1CCC(=O)N1Cc1ccccc1 (mixture of isomers) [Example 31, (2R)-1-Benzyl-N-(3,4-dioxo-1-phenyl-4-(2-(pyridin-2-yl)-ethylamino)butan-2-yl)-5-oxopyrrolidine-2-carboxamide]
[3]
  Sel cat. S: ++ (30<Ki(cathepsin B)/Ki(calpain)≦100)
[4]
  Sel cat. K: ++ (10<Ki(cathepsin B)/Ki(calpain)≦30)
[2]
  Ki: 100 to 600 nM

## NC(=O)C(=O)C(Cc1ccccc1)NC(=O)[C@H]1CCC(=O)N1Cc1ccc2ccccc2c1 (stereo partly drawn) [Example 12, (2R)—N-(4-Amino-3,4-dioxo-1-phenylbutan-2-yl)-1-(naphthalen-2-ylmethyl)-5-oxopyrrolidine-2-carboxamide]
[3]
  Sel cat. S: + (10<Ki(cathepsin S)/Ki(calpain)≦30)
[4]
  Sel cat. K: + (5<Ki(cathepsin K)/Ki(calpain)≦10)
[2]
  Ki: < 50 nM

## O=C(NCc1ccco1)C(=O)C(Cc1ccccc1)NC(=O)[C@H]1CCC(=O)N1Cc1ccccc1 (mixture of isomers) [Example 72, (2R)-1-Benzyl-N-(4-(furan-2-ylmethylamino)-3,4-dioxo-1-phenylbutan-2-yl)-5-oxopyrrolidine-2-carboxamide]
[2]
  Ki: 50 to 100 nM

## O=C(NCc1cncs1)C(=O)C(Cc1ccccc1)NC(=O)[C@H]1CCC(=O)N1Cc1ccccc1 (mixture of isomers) [Example 52, (2R)-1-Benzyl-N-(3,4-dioxo-1-phenyl-4-(thiazol-5-ylmethylamino)butan-2-yl)-5-oxopyrrolidine-2-carboxamide]
[2]
  Ki: 100 to 600 nM

## O=C(NCCc1ccsc1)C(=O)C(Cc1ccccc1)NC(=O)[C@H]1CCC(=O)N1Cc1ccccc1 (single isomer, unassigned) [Example 71]
[2]
  Ki: < 50 nM

## COc1cccc(C(F)(F)F)c1CN1C(=O)CC[C@@H]1C(=O)NC(Cc1ccccc1)C(=O)C(=O)NC1CC1 (mixture of isomers) [Example 74, (2R)—N-(4-(Cyclopropylamino)-3,4-dioxo-1-phenylbutan-2-yl)-1-(2-methoxy-6-(trifluoromethyl)benzyl)-5-oxopyrrolidine-2-carboxamide]
[2]
  Ki: 100 to 600 nM
